In data set [1] the test system is Brugia malayi. Description: Antifilarial activity against Brugia malayi adult worm assessed as reduction in motility at 5 uM after 5 days by MTT dye reduction assay. Particulars: 120 h. The data set is classed as functional.
For data set [2], the system named is Brugia malayi. As to the kind of experiment: Antifilarial activity against Brugia malayi adult worm assessed as reduction in motility at 10 uM after 5 days by MTT dye reduction assay. The format is functional, organism-based.
Data set [3] concerns Brugia malayi. As to the kind of experiment: Antifilarial activity against Brugia malayi microfilaria assessed as reduction in motility at 5 uM after 5 days by MTT dye reduction assay. The data set is classed as functional. Particulars: 120 h.
The subject of data set [4] is Brugia malayi. As to the kind of experiment: Antifilarial activity against Brugia malayi microfilaria assessed as reduction in motility at 10 uM after 5 days by MTT dye reduction assay. The format is functional, organism-based.
Data set [5] concerns Brugia malayi. As to the kind of experiment: Antifilarial activity against Brugia malayi adult worm assessed as reduction in motility after 5 days by MTT dye reduction assay. The data set is classed as functional, organism-based.
Data set [6] relates to Brugia malayi. Description: Antifilarial activity against Brugia malayi microfilaria assessed as reduction in motility after 5 days by MTT dye reduction assay. The format is functional, organism-based.
In data set [7] the test system is Brugia malayi. As to the kind of experiment: Antifilarial activity against Brugia malayi adult worm assessed as reduction in motility at 2.5 uM after 5 days by MTT dye reduction assay. The format is functional. The conditions noted are these: 120 h.
The test system of data set [8] is Brugia malayi. As to the kind of experiment: Antifilarial activity against Brugia malayi adult worm assessed as reduction in motility at 1.25 uM after 5 days by MTT dye reduction assay. The format is functional. The conditions noted are these: 120 h.
Data set [9] concerns Brugia malayi. Description: Antifilarial activity against Brugia malayi adult worm assessed as reduction in motility at 0.625 uM after 5 days by MTT dye reduction assay. The conditions noted are these: 120 h. The format is functional.
Data set [10] deals with Brugia malayi. Description: Antifilarial activity against Brugia malayi adult worm assessed as reduction in motility at 0.312 uM after 5 days by MTT dye reduction assay. The conditions noted are these: 120 h. The format is functional.
Data set [11] concerns Brugia malayi. As to the kind of experiment: Antifilarial activity against Brugia malayi adult worm assessed as reduction in motility at 0.19 uM after 5 days by MTT dye reduction assay. The data set is classed as functional. Particulars: 120 h.
In data set [12] the test system is Brugia malayi. As to the kind of experiment: Antifilarial activity against Brugia malayi microfilaria assessed as reduction in motility at 2.5 uM after 5 days by MTT dye reduction assay. The data set is classed as functional. The conditions noted are these: 120 h.
Data set [13] deals with Brugia malayi. As to the kind of experiment: Antifilarial activity against Brugia malayi microfilaria assessed as reduction in motility at 1.25 uM after 5 days by MTT dye reduction assay. The format is functional. The conditions noted are these: 120 h.
Data set [14] concerns Brugia malayi. As to the kind of experiment: Antifilarial activity against Brugia malayi microfilaria assessed as reduction in motility at 0.625 uM after 5 days by MTT dye reduction assay. The data set is classed as functional. Particulars: 120 h.
Data set [15] deals with Brugia malayi. As to the kind of experiment: Antifilarial activity against Brugia malayi microfilaria assessed as reduction in motility at 0.312 uM after 5 days by MTT dye reduction assay. The format is functional. The conditions noted are these: 120 h.
The subject of data set [16] is Brugia malayi. As to the kind of experiment: Antifilarial activity against Brugia malayi microfilaria assessed as reduction in motility at 0.19 uM after 5 days by MTT dye reduction assay. Particulars: 120 h. The format is functional.
Data set [17] can be described thus: Selectivity index, ratio of CC50 for African green monkey Vero cells to IC50 for Brugia malayi adult worm. The data set is classed as functional.
Data set [18] can be described thus: Selectivity index, ratio of CC50 for African green monkey Vero cells to IC50 for Brugia malayi microfilaria. The data set is classed as functional.
Data set [19] is described as follows: Cytotoxicity against African green monkey Vero cells after 72 hrs by resazurin dye-based fluorescence assay. The data set is classed as cell-based. The conditions noted are these: chlorocebus sabaeus, Vero cells.
The subject of data set [20] is Brugia malayi. Description: Antifilarial activity against Brugia malayi adult worm infected in jird model assessed as adulticidal activity at 100 mg/kg, sc after 5 days measured till day 45 relative to control. The format is functional. Particulars: route subcutaneous.
Data set [21] relates to Brugia malayi. Description: Antifilarial activity against Brugia malayi adult worm infected in jird model assessed as sterile female at 100 mg/kg, sc after 5 days measured till day 45 relative to control. Particulars: route subcutaneous. The data set is classed as functional.
The test system of data set [22] is Brugia malayi. As to the kind of experiment: Antifilarial activity against Brugia malayi microfilariae infected in jird model assessed as microfilaricidal activity at 100 mg/kg, sc after 5 days measured till day 45 relative to control. Particulars: route subcutaneous. The data set is classed as functional.

The structures appear in SMILES notation. Converted amounts (≈) assume the structure as drawn. The source made the active and inactive calls. The rule behind the calls is not given here. Where only a bound is given, the exact number is not on record here.

Consider `O=c1cc(OCC(O)CN2CCCCC2)c2ccccc2o1` (stereo not given), for which the inhibition at 5 µM with Brugia malayi [1] stood at 23.7%; with Brugia malayi [3] it was 1%. Moreover, the result with Brugia malayi [2] and with Brugia malayi [4] was inactive. For the same compound, the MIC result in the data set with Brugia malayi [5] and with Brugia malayi [6] was “inactive” in each case.
With `CCCCNCC(O)COc1cc(=O)oc2ccccc12` (stereo not given), the results for the inhibition at 2.5 µM with Brugia malayi [7] and in the data set on Brugia malayi [12] were 84.9% and 100%, respectively. Further, the inhibition at 1.25 µM in the data set with Brugia malayi [8] worked out at 52.4%; with Brugia malayi [13] it was 75%. Besides, the inhibition at 0.625 µM with Brugia malayi [9] is 48.9%; with Brugia malayi [14], 50%. The figures for the inhibition at 0.312 µM in the data set with Brugia malayi [10] and in the data set with Brugia malayi [15] were 46.9% and 1%, respectively. In addition, the inhibition at 0.19 µM is 8.9% in the data set with Brugia malayi [11] and 1% in the data set on Brugia malayi [16]. The IC50 came out at 690 nM with Brugia malayi [5] (Brugia malayi, 120 h) and 430 nM in the data set with Brugia malayi [6] (Brugia malayi, 120 h). Further, the MIC in the data set with Brugia malayi [5] (Brugia malayi, 120 h) worked out at 2.5 µM (≈ 0.728 µg/mL); in the data set on Brugia malayi [6] (Brugia malayi, 120 h), 2.5 µM (≈ 0.728 µg/mL). Also, the entries for the “Ratio CC50/IC50” value in data set [17] and in data set [18] were more than 144.9 and more than 232.5, respectively. In [19], the CC50 at 72 h was more than 100000 nM.
As to `O=C(O)CCCNCC(O)COc1cc(=O)oc2ccccc12` (stereo not given), the inhibition at 5 µM with Brugia malayi [1] is 17.5%; in the data set on Brugia malayi [3], 1%. Further, the result with Brugia malayi [2] and with Brugia malayi [4] was inactive. In addition, the MIC entry in the data set on Brugia malayi [5] and with Brugia malayi [6] was “inactive” each time.
For the compound `O=c1cc(OCC(O)CN2CCOCC2)c2ccccc2o1` (stereo not given), the inhibition at 5 µM in the data set on Brugia malayi [1] is 20.1%; in the data set on Brugia malayi [3], 1%. Besides, the outcome in the data set on Brugia malayi [2] and in the data set with Brugia malayi [4] was inactive. Further, the MIC result in the data set with Brugia malayi [5] and in the data set with Brugia malayi [6] was “inactive” throughout.
For the compound `CCN(CC)C(=O)N1CCN(C)CC1` [DIETHYLCARBAMAZINE], the MIC entry with Brugia malayi [5] and with Brugia malayi [6] was “inactive” throughout. Also, the Activity in the data set with Brugia malayi [20] was found to be 33.3%; with Brugia malayi [21], 0%; with Brugia malayi [22], 39.5%.
With `Cc1ccc(NCC(O)COc2cc(=O)oc3ccccc23)cc1` (stereo not given), the inhibition at 5 µM amounted to 78.9% in the data set on Brugia malayi [1] and 100% in the data set with Brugia malayi [3]. Moreover, the inhibition at 2.5 µM turned out to be 38.6% with Brugia malayi [7] and 75% with Brugia malayi [12]. For the same compound, the inhibition at 1.25 µM with Brugia malayi [8] is 12.8%; with Brugia malayi [13], 75%. Moreover, the results for the inhibition at 0.625 µM in the data set on Brugia malayi [9] and with Brugia malayi [14] were 8.9% and 75%, respectively. In addition, the inhibition at 0.312 µM in the data set with Brugia malayi [10] was determined as 9.6%; in the data set with Brugia malayi [15] it was 75%. Besides, the 50% inhibitory concentration (IC50) with Brugia malayi [5] (Brugia malayi, 120 h) came to 1380 nM; in the data set with Brugia malayi [6] (Brugia malayi, 120 h), 180 nM. The MIC was 5 µM (≈ 1.63 µg/mL) in the data set with Brugia malayi [5] (Brugia malayi, 120 h) and 2.5 µM (≈ 0.813 µg/mL) in the data set on Brugia malayi [6] (Brugia malayi, 120 h). For the same compound, the “Ratio CC50/IC50” value is more than 72.4 in [17] and more than 555.5 in data set [18]. In data set [19], the CC50 at 72 h is more than 100000 nM. Besides, the Activity with Brugia malayi [20] came to 24.8%; in the data set with Brugia malayi [21] it was 0%; with Brugia malayi [22], 31.7%.

The values above are taken from ChEMBL document CHEMBL3414470, “Synthesis and biological evaluation of 4-oxycoumarin derivatives as a new class of antifilarial agents” (Eur J Med Chem, 2015).
